Source: patent EP2605769B1, “BENZOQUINONE DERIVATIVES FOR THE TREATMENT OF MITCHONDRIAL EYE DISEASES” (Santhera Pharmaceuticals (Schweiz) AG, priority 2010, dated 2012)

How the values were obtained:
[1] = tested on: Primary human fibroblasts C4 (GM04545, Coriell); assay: Lipid peroxidation assay (BODIPY 581/591-C11); format: cell-based; conditions: 10 µM test compound, 72 hours
Excerpt: Lipid peroxidation is a well defined mechanism of cellular damage in both animals and plants that occurs during aging and in some disease states. This process proceeds by a free radical chain reaction mechanism. […] If not terminated fast enough, lipid peroxidation damages cellular membranes, affect membrane fluidity and also mitochondrial function. In addition, end products of lipid peroxidation may be mutagenic and carcinogenic. For instance, the reactive end product of lipid peroxidation, malondialdehyde, directly causes DNA damage. Experimental Procedure: […] BODIPY 581/591-C11 can be used to measure antioxidant activity in lipid environments by exploiting its loss of fluorescence upon interaction with peroxyl radicals. […] After that, 0.1 ml freshly prepared dye solution (HBSS, containing BODIPY dye 1:1000 from stock solution) was added and cells were returned to the incubator for 30 min. After 2 brief washes with 0.1 ml warmed PBS fluorescence was measured in 50 µl PBS. Fluorescence for 4 individual areas per well were individually quantified at two wavelengths (Ex1: 490, Em1: 600; Ex2: 490, Em2: 530, bandwith 10nm, 50 flashes, 400Hz frequency, 20 µs integration time).

RGC-5 cells = assay: Cellular viability of RGC-like cells challenged with rotenone (cellular ATP content); format: cell-based; conditions: 1 day-preincubation, 100 µM
Excerpt: Mitochondrial impairment directly influences cellular survival. Especially cells and tissues that display high level of energy consumption, such as neurons are especially vulnerable. Consequently, these cells and tissues are likely to be the most responsive to a strategy that targets mitochondrial function. We addressed this possibility by assessing the viability of the retinal ganglion cell line RGC-5, challenged with the mitochondrial complex I inhibitor rotenone, in the absence or presence of compounds.
Experimental procedure: RGC-5 cells were cultured under ambient conditions (37 °C, 5% CO2, 90% humidity) in DMEM (1g/l glucose; 10% fetal bovine serum (FBS), Penicillin-Streptomycin-Glutamine (PSG)). RGC-5 cells will be seeded in DMEM (1g/l glucose; 2% FBS) into BD Falcon™ cell culture plates. Before rotenone- induced complex I inhibition, the cells were pre-treated with Compound IA or vehicle. For Compound IA co-treatment with rotenone, new compound was added together with rotenone-containing cell culture media. After the rotenone exposure, the media was exchanged and replaced by Hanks' BSS for the 1 day post-incubation. The post-treatment media contained Compound IA or vehicle only. As measure of cell viability, cellular ATP content was analyzed using luminescence from ATP-dependent enzymatic oxidation of luciferin by luciferase. RGC-5 cells were be washed with PBS and lysed in lysis buffer (4 mM EDTA, 0.2% Triton X-100) at room temperature. In 96-well plates, ATP measurement buffer (25 mM HEPES pH 7.25, 300 µM D-luciferin, 5 µg/ml firefly luciferase, 75 µM DTT, 6.25 mM MgCl2, 625 µM EDTA and 1 mg/ml BSA) was combined with lysate to start the reaction. Luminescence was quantified immediately using a multimode plate reader (Tecan M1000, Tecan iControl 1.6 software; Tecan Austria GmbH, Grödig, Austria). Effects on cell viability were defined as the percentage of compound-mediated change in cell viability relative to rotenone-induced reduction in cell viability. Data are presented as mean ± SEM. Paired Student's t-test was used to compare non-normalized data. Statistical significance was set at p≤0.05(*), p≤0.01(**) and p≤0.001(***).

Question: COC1=C(OC)C(=O)C(CCCCCCCCCCO)=C(C)C1=O [Compound ID] was tested. Which Lipid peroxidation [1] did it give?
Answer: The Lipid peroxidation was 110%.

Question: What does the source list for CCCn1cnc2c1c(=O)n(CCCCC(C)=O)c(=O)n2C [propentophylline, reference compound]?
Answer: cell viability, compound-mediated change relative to rotenone-induced reduction, mean (Fig. 2) (RGC-5 cells): not significant; cell viability, compound-mediated change relative to rotenone-induced reduction, mean (Fig. 2) (RGC-5 cells; listed as PP): 2.2%; cell viability, compound-mediated change relative to rotenone-induced reduction, mean (Fig. 2) (RGC-5 cells; listed as propentophilline): no significant protective activity
